Laboratory results: BindingDB's records for doi:10.1021/acs.jmedchem.6b01595 (Dipartimento Di Chimica E Tecnologie Del Farmaco "Sapienza" …, 2017)

Target: T1, Histone deacetylase (Plasmodium falciparum (isolate 3D7), UniProt Q7K6A1)
T1 sequence (Q7K6A1 whole entry): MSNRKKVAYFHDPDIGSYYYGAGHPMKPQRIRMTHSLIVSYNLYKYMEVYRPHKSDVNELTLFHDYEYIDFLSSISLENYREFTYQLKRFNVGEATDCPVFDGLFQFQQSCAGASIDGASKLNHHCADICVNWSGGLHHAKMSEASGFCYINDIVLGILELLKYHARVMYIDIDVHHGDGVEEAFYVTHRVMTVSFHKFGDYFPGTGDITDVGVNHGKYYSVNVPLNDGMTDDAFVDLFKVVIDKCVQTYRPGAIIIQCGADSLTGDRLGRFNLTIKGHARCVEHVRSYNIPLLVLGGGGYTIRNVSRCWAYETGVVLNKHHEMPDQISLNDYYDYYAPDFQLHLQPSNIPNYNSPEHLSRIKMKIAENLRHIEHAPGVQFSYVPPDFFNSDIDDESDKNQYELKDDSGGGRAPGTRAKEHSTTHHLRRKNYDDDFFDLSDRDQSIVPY
Assay: Inhibition of HDAC1 in Plasmodium falciparum 3D7 nuclear extract using Ac-RGK(Ac)-AMC fluorogenic peptide as substrate preincubated for 1 hr followed by substrate addition measured after 10 min by fluorescence assay

Work on `C/C=C1\NC(=O)[C@H]2CSSCC/C=C/[C@@H](CC(=O)N[C@H](C(C)C)C(=O)N2)OC(=O)[C@H](C(C)C)NC1=O` yielded an IC50 of 0.9 nM.
